{"source": "patent US20080108698A1", "about": "“Nutrient Supplement and Use of the Same” (OY ELMOMED LTD, priority 2004, published 2008)", "key": {"[1]": {"conditions": "Barlas et al.; 11-day study period, 60 study subjects; cited from earlier work"}, "[2]": {"conditions": "Trappe et al. 2002; cited from earlier work"}, "[3]": {"assay": "Example 1: subjects' reports of muscle pain, stiffness, aches, power performance and adverse effects", "type": "in vivo, human", "from_the_text": "In order to assess the effects of HICA (α-hydroxy-isocaproic acid) on exercise induced muscle pain and body composition, 0.496 g of HICA (produced in VTT Technical Research Centre of Finland, Helsinki) was given thrice daily after intensive training sessions to 7 healthy volunteers for 42 days in an open study. The volunteers were national top wrestlers, weighing 79.7+/−4.5 kg (mean+/−SD) and aging 26+/−6 years (mean+/−SD). They had at least 10 training sessions a week, each lasting from 1.5 to 2.5 hours.\nThe subjects took HICA orally as liquid (62.5 g HICA dissolved in 630 ml water and buffered by NaOH to pH 3.8). The single dose taken three times a day after each training session was 5 ml (containing […] of HICA) of the solution mixed with apple juice. On those days they had less than three training session they took extra doses of HICA so that 3 doses were taken each day. The total daily dose was 1488 mg of HICA.\nSubjects were asked to report all feelings they would associate with the treatment with HICA, e.g. pain, stiffness or aches in muscles felt during and after the training sessions."}, "[4]": {"assay": "Example 2: basket ball player case study, body composition by DEXA", "type": "in vivo, human", "procedure": "(§1) A basket ball player (weight 83.7 kg; BMI 26.8 kg/m^2) took after intensive daily training sessions 0.496 g of HICA three times a day for 42 days in an identical design as described in Example 1. The composition of their soft tissue was analyzed in detail. DEXA-results were analyzed by a software discriminating successfully between bone, fat and lean body mass."}, "[5]": {"assay": "Example 2: subjective muscle aches and laboratory tests", "type": "in vivo, human", "conditions": "one basket ball player", "procedure": "as §1"}, "[6]": {"assay": "Example 1: open 42-day study in top wrestlers, body weight and body composition by DEXA", "type": "in vivo, human", "conditions": "individual subjects 1-7; after 42 days, 0.496 g thrice daily orally"}, "[7]": {"assay": "Example 1: open 42-day study in top wrestlers, body weight and body composition by DEXA", "type": "in vivo, human", "from_the_text": "(§2) In order to assess the effects of HICA (α-hydroxy-isocaproic acid) on exercise induced muscle pain and body composition, 0.496 g of HICA (produced in VTT Technical Research Centre of Finland, Helsinki) was given thrice daily after intensive training sessions to 7 healthy volunteers for 42 days in an open study. The volunteers were national top wrestlers, weighing 79.7+/−4.5 kg (mean+/−SD) and aging 26+/−6 years (mean+/−SD). They had at least 10 training sessions a week, each lasting from 1.5 to 2.5 hours. During 6 weeks preceding the HICA period there were no essential changes in the body weight of the wrestlers. At least for 6 weeks before and during the trial daily diets and the number, intensity, and length of daily training sessions were kept constant. Before the study the subjects underwent a medical examination. Twenty ml of blood was taken for chemical assays and the body weight and body composition were assessed by dual-energy X-ray absorptiometry (DEXA; LUNAR GE Medical Systems) just before starting the 42-day HICA intake. The subjects took HICA orally as liquid (62.5 g HICA dissolved in 630 ml water and buffered by NaOH to pH 3.8). The single dose taken three times a day after each training session was 5 ml (containing […] of HICA) of the solution mixed with apple juice. On those days they had less than three training session they took extra doses of HICA so that 3 doses were taken each day. The total daily dose was 1488 mg of HICA."}, "mice": {"system": "mice", "conditions": "iv. in mice, Na-salt; cited from earlier work"}, "[8]": {"assay": "Example 1: blood pressure, heart rate and clinical chemistry before and after HICA", "type": "in vivo, human", "conditions": "n = 7, after 42 days", "from_the_text": "as §2, with “hours.” for “hours. During 6 weeks preceding the HICA period there were no essential changes in the body weight of the wrestlers. At least for 6 weeks before and during the trial daily diets and the number, intensity, and length of daily training sessions were kept constant.”"}, "[9]": {"conditions": "commercially available colorless crystals; cited from earlier work"}, "[10]": {"conditions": "after vs before 42-day treatment"}, "[11]": {"conditions": "one basketball player, after 42-day treatment"}, "[12]": {"conditions": "individual subjects 1-7, after 42 days"}, "[13]": {"conditions": "individual subjects 1-7, after 42 days, DEXA"}, "[14]": {"conditions": "mean of 7 subjects, after 42 days, P < 0.05 vs before"}}, "note": "Values joined by “and” are separate entries in the source; they are usually repeats but may differ in a detail not shown here. Equal entries are not always repeated."}
{"smiles": "CC(=O)Oc1ccccc1C(=O)O", "note": "[aspirin]", "values": [{"measurement": "effect on delayed-onset muscle soreness induced by eccentric exercise", "setting": "[1]", "result": "neither aspirin, paracetamol nor codeine had a beneficial effect"}]}
{"smiles": "CC(C)Cc1ccc(C(C)C(=O)O)cc1", "note": "(centres unmarked) [ibuprofen]", "values": [{"measurement": "effect on eccentric resistant training induced muscle soreness", "setting": "[2]", "result": "Neither ibuprofen nor paracetamol reduced eccentric resistant training induced muscle soreness"}]}
{"smiles": "CC(=O)Nc1ccc(O)cc1", "note": "[paracetamol]", "values": [{"measurement": "effect on delayed-onset muscle soreness induced by eccentric exercise", "setting": "[1]", "result": "neither aspirin, paracetamol nor codeine had a beneficial effect"}, {"measurement": "effect on eccentric resistant training induced muscle soreness", "setting": "[2]", "result": "Neither ibuprofen nor paracetamol reduced eccentric resistant training induced muscle soreness"}]}
{"smiles": "COc1ccc2c3c1O[C@H]1[C@@H](O)C=C[C@H]4[C@@H](C2)N(C)CC[C@@]341", "note": "[codeine]", "values": [{"measurement": "effect on delayed-onset muscle soreness induced by eccentric exercise", "setting": "[1]", "result": "neither aspirin, paracetamol nor codeine had a beneficial effect"}]}
{"smiles": "CC(C)CC(O)C(=O)O", "note": "(racemic) [HICA, DL-α-hydroxy-isocaproic acid]", "values": [{"measurement": "adverse effects", "setting": "[3]; 42-day treatment, 7 top athletes", "result": "without any adverse effects"}, {"measurement": "pain, stiffness and aches in muscles felt during and after the training sessions (subjects' reports)", "setting": "[3]; all 7 subjects, 42-day treatment", "result": "abolishment of pain, stiffness and aches in muscles"}, {"measurement": "subjects reporting enhanced power performance", "setting": "[3]; subjective, after the treatment with HICA", "result": "6 out of 7"}, {"measurement": "gain of lean body mass during the treatment", "setting": "[4]; DEXA, one basket ball player, 42 days", "result": 2.65, "unit": "kg"}, {"measurement": "bone, Change", "setting": "[4]; [10]", "result": "+0.0 g"}, {"measurement": "fat, Change", "setting": "[4]; [10]", "result": 0.3, "unit": "kg"}, {"measurement": "lean, extremities, Change", "setting": "[4]; [10]", "result": 1.6, "unit": "kg"}, {"measurement": "lean, other, Change", "setting": "[4]; [10]", "result": "+0.0 g"}, {"measurement": "lean, total, Change", "setting": "[4]; [10]", "result": "+2.7 g"}, {"measurement": "lean, trunk, Change", "setting": "[4]; [10]", "result": 1, "unit": "kg"}, {"measurement": "weight, Change", "setting": "[4]; [10]", "result": 3, "unit": "kg"}, {"measurement": "bone, After HICA", "setting": "[4]; [11]", "result": 4.1, "unit": "kg"}, {"measurement": "fat, After HICA", "setting": "[4]; [11]", "result": 8.1, "unit": "kg"}, {"measurement": "lean, extremities, After HICA", "setting": "[4]; [11]", "result": 34.8, "unit": "kg"}, {"measurement": "lean, other, After HICA", "setting": "[4]; [11]", "result": 4.3, "unit": "kg"}, {"measurement": "lean, total, After HICA", "setting": "[4]; [11]", "result": 74.4, "unit": "kg"}, {"measurement": "lean, trunk, After HICA", "setting": "[4]; [11]", "result": 35.45, "unit": "kg"}, {"measurement": "weight, After HICA", "setting": "[4]; [11]", "result": 86.6, "unit": "kg"}, {"measurement": "exercise related muscle aches and pains (subjective report)", "setting": "[5]; 42 days", "result": "disappearance of all exercise related muscle aches and pains"}, {"measurement": "laboratory tests, e.g. blood pressure, heart rate or blood analyses", "setting": "[5]; data not shown", "result": "no changes"}, {"measurement": "Whole body weight, After HICA", "setting": "[6]", "result": "79.1 kilograms and 88.1 kilograms and 75.2 kilograms and 77.6 kilograms and 79.3 kilograms and 79 kilograms and 85.7 kilograms"}, {"measurement": "change of bone weight (DEXA)", "setting": "[7]; 42-day treatment, 7 subjects", "result": "not changed"}, {"measurement": "change of total soft tissue mass (total weight - bone weight)", "setting": "[7]; 42-day treatment, P<0.05, paired t-test", "result": "increased significantly"}, {"measurement": "change of soft tissue masses of all extremities and trunk", "setting": "[7]; 42-day treatment, P<0.05 and P<0.001, respectively", "result": "increased significantly"}, {"measurement": "Total weight of soft tissue in extremities, After HICA", "setting": "[7]; [12]", "result": "33.2 kilograms and 35.7 kilograms (2×) and 34.7 kilograms and 38.5 kilograms and 35.2 kilograms and 39.0 kilograms"}, {"measurement": "Total weight of soft tissue in trunk, After HICA", "setting": "[7]; [12]", "result": "38.0 kilograms and 38.3 kilograms and 39.7 kilograms and 40.4 kilograms and 43.1 kilograms and 39.8 kilograms and 44.8 kilograms"}, {"measurement": "Bone weight, After HICA", "setting": "[7]; [13]", "result": "4.1 kilograms (2×) and 4.4 kilograms and 4.0 kilograms (2×) and 3.6 kilograms and 3.9 kilograms"}, {"measurement": "Soft tissue weight, After HICA", "setting": "[7]; [13]", "result": "75.0 kilograms and 83.7 kilograms and 71.2 kilograms and 74.0 kilograms and 75.4 kilograms and 75.1 kilograms and 81.6 kilograms"}, {"measurement": "Total weight of soft tissue in trunk, After HICA, mean", "setting": "[7]; mean of 7 subjects, after 42 days, P < 0.001 vs before", "result": 40.6, "unit": "kilograms"}, {"measurement": "Soft tissue weight, After HICA, mean", "setting": "[7]; [14]", "result": 76.6, "unit": "kilograms"}, {"measurement": "Total weight of soft tissue in extremities, After HICA, mean", "setting": "[7]; [14]", "result": 36.0, "unit": "kilograms"}, {"measurement": "Whole body weight, After HICA, mean", "setting": "[7]; [14]", "result": 80.57, "unit": "kilograms"}, {"measurement": "Bone weight, After HICA, mean", "setting": "[7]; mean of 7 subjects, after 42 days, nonsignificant vs before", "result": 4.0, "unit": "kilograms"}, {"measurement": "mean weight gain during the treatment period", "setting": "[7]; mean+/-SD, 7 subjects, 42-day treatment, P<0.05 paired t-test", "result": "0.8 kg and 0.84 ± 1.0 kg"}, {"measurement": "LD50", "setting": "mice", "result": 650, "unit": "mg/kg"}, {"measurement": "B-Erythrocytes, After HICA, mean", "setting": "[8]; NS", "result": "4.9 E12/l"}, {"measurement": "B-Hematocrite, After HICA, mean", "setting": "[8]; NS", "result": 42.6, "unit": "%"}, {"measurement": "B-Hemoglobin, After HICA, mean", "setting": "[8]; NS", "result": 149.1, "unit": "g/L"}, {"measurement": "B-Leucocytes, After HICA, mean", "setting": "[8]; NS", "result": "5.7 E9/l"}, {"measurement": "E-MCH, After HICA, mean", "setting": "[8]; NS", "result": 30.4, "unit": "pg"}, {"measurement": "E-MCHC, After HICA, mean", "setting": "[8]; NS", "result": 347.9, "unit": "g/L"}, {"measurement": "E-MCV, After HICA, mean", "setting": "[8]; NS", "result": 87.4, "unit": "fL"}, {"measurement": "S-Alanine amino transferase, After HICA, mean", "setting": "[8]; NS", "result": 31.6, "unit": "U/l"}, {"measurement": "fS-Creatinine, After HICA, mean", "setting": "[8]; NS", "result": 89.2, "unit": "µM"}, {"measurement": "heart rate, After HICA, mean", "setting": "[8]; NS", "result": 62.0, "unit": "min⁻¹"}, {"measurement": "diastolic blood pressure, After HICA, mean", "setting": "[8]; P < 0.01 vs before", "result": 75.7, "unit": "mmHg"}, {"measurement": "systolic blood pressure, After HICA, mean", "setting": "[8]; P < 0.05 vs before", "result": 139.7, "unit": "mmHg"}, {"measurement": "solubility", "setting": "[9]", "result": "soluble in water and alcohols"}]}
